From article PMC7655034, “Identification of a dual TAOK1 and MAP4K5 inhibitor using a structure-based virtual screening approach” (Journal of Enzyme Inhibition and Medicinal Chemistry, 2020)
“And” between values parts separate entries of the source, which are not always exact repeats. Identical values can stand only once.

How the values were obtained:
[1] = biological target: T1, MAP4K5 (Homo sapiens, UniProt Q9Y4K4); experiment: Enzymatic assay (Z'-LYTE, Thermo Fisher); assay type: biochemical; conditions: for inhibition at 10 µM / Inhibition percentage at 10 μM MAP4K5: 10 μM compound, average of two replicates; for inhibition at 10 µM: read-out: Inhibition percentage at 10 μM MAP4K5
T1 construct: purchased Thermo Fisher Scientific (outsourced assay service)
T1 sequence (Q9Y4K4 whole entry): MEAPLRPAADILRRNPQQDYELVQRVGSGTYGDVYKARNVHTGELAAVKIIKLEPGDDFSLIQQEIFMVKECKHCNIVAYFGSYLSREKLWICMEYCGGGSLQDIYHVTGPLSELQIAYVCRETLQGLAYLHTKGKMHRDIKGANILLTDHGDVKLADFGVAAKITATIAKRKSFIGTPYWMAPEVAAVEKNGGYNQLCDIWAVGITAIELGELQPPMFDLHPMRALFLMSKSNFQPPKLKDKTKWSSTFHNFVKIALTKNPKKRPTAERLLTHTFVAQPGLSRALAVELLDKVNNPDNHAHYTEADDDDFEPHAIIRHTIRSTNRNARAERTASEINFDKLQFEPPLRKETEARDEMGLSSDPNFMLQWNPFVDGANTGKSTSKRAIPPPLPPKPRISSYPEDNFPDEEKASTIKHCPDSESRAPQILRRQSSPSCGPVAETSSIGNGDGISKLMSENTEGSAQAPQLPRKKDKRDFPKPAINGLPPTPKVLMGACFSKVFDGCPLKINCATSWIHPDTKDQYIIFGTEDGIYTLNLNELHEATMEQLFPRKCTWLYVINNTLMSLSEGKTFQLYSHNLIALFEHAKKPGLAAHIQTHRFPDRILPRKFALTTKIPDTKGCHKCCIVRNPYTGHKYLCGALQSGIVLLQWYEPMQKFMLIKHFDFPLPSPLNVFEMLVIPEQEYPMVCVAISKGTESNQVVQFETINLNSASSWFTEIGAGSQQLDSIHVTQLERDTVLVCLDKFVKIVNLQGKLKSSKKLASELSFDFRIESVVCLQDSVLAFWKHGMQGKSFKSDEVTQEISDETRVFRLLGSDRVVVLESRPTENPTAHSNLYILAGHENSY
Procedure: (§1) The enzymatic assay was outsourced to Thermo Fisher Scientific to conduct. They used LanthaScreen and Z´-LYTE technology, which were both robust homogeneous assays method by Fluorescence Resonance Energy Transfer (FRET) to evaluate TAOK1 and MAP4K5, respectively. Briefly, the test compound was co-incubated with fluorescein-labelled substrate, kinase, ATP, kinase buffer and development reagent for reaction. After 1 h, the stop solution (EDTA) was added and then the results were determined by a fluorescence reader. The data was shown as an average of two replicates.

[2] = biological target: T2, TAOK1 (Homo sapiens, UniProt Q7L7X3); experiment: Enzymatic assay (LanthaScreen, Thermo Fisher); assay type: biochemical; conditions: for inhibition at 10 µM / Inhibition percentage at 10 μM TAOK1: 10 μM compound, average of two replicates; for inhibition at 10 µM: read-out: Inhibition percentage at 10 μM TAOK1
T2 construct: purchased Thermo Fisher Scientific (outsourced assay service)
T2 sequence (Q7L7X3 1-1001): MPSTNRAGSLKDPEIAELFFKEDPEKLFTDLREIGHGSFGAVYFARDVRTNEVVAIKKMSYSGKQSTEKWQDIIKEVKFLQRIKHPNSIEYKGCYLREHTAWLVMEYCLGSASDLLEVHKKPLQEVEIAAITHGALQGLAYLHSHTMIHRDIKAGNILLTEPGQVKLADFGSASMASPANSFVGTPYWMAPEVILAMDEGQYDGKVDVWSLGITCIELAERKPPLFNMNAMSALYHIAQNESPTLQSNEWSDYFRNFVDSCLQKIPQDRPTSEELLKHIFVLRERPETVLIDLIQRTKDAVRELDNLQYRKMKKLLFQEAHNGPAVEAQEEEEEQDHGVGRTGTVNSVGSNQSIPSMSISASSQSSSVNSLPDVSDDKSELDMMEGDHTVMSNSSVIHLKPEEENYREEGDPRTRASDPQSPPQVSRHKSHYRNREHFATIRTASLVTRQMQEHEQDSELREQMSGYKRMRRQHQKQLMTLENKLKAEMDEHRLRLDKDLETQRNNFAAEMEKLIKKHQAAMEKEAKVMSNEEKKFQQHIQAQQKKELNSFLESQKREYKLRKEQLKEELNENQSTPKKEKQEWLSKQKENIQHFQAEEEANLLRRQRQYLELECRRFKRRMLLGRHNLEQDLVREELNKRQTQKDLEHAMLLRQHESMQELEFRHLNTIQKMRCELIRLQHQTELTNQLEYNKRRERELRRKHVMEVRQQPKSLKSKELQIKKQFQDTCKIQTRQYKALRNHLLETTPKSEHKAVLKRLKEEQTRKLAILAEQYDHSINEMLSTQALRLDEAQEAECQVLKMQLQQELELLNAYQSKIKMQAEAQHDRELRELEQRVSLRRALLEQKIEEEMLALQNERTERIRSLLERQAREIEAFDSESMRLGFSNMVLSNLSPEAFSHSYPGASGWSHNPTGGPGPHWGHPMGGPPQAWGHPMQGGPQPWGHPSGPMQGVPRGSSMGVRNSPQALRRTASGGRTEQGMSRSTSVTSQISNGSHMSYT
Procedure: as §1

[3] = system: HCT116, HT29 and H1299; experiment: Single-concentration SRB and MTT assays in cancer cell lines; assay type: cell-based, Human; conditions: for Effect in cell-based experiments: HCT116, HT-29, H1299
Procedure: (§2) Human colorectal cancer cell lines HCT116, HT-29 and human lung cancer cell line, H1299 were purchased from the Bioresource Collection and Research Centre (BCRC, Taiwan) and were incubated either in McCoy’s 5 A medium or RPMI-1640 medium (Thermo Fisher Scientific, Walthma, MA, USA), supplemented with 10% foetal bovine serum and 1% Penicillin-Streptomycin-Amphotericin B Solution (Biological Industries, Kibbutz Beit-Haemek, Israel) at 37 °C in a humidified atmosphere with 5% CO2.
(§3) Cell viability was determined by MTT (3–(4,5-dimethylthiazol-2-yl)-2,5-diphenyltetrazolium bromide, Sigma Chemical Co, St. Louis, MO, USA) assay. Cells were seeded in 96-well plates at a density of 5,000 cells/well in a regular culture medium overnight. Then, the cells were treated with various concentrations of indicated compounds for 72 h. After that, the medium was removed, 100 µL MTT solution (0.5 mg/ml in phosphate-buffered saline, PBS) was added to each well and then incubated for 1 h at 37 °C. The insoluble formazan dyes, representing the active mitochondrial dehydrogenase in live cells, were dissolved in the dimethyl sulfoxide (DMSO). The absorbance was analysed by an ELISA reader (Beckman Coulter, Brea, CA, USA) at 550 nm.
(§4) SRB (sulforhodamine B, Sigma Chemical Co, St Louis, MO, USA) assay was used to analyse cell proliferation. Cells were seeded in 96-well plates at a density of 5000 cells/well and then treated with various concentrations of indicated compounds for 48 h. Cells were fixed with 10% TCA (trichloroacetic acid), washed with PBS, and stained with 100 µL SRB solution (0.4% SRB in 1% acetic acid) for 15 min. Then, cells were washed three times with 1% acetic acid and dissolved in the trizma base solution (10 mM). The absorbance was measured by an ELISA reader (Beckman Coulter Diagnostics, Brea, CA, USA) at […].

[4] = system: panel of around 70 kinases; experiment: Kinase selectivity (Thermo Fisher SelectScreen kinome panel); assay type: biochemical; conditions: concentration selected based on IC50 values
Procedure: The kinase selectivity of selected compounds was performed by Thermo Fisher Select Screen service. A kinome screen occurred across a panel of roughly 70 kinases. Conditions and analyses are available online (www.thermofisher.com/selectscreen).
To evaluate the selectivity of the inhibitors identified in this study, a biochemical assay was conducted by ThermoFisher Scientific. A panel of around 70 kinases from different kinase families as well as all available members of the STE kinase family, was selected for testing (Supplemental Figure 3). The concentration of the compound was selected based on their IC50 values. […] The target kinase in this study, MAP4K5 and TAOK1, belong to the STE20 kinase family. Of the kinases inhibited by compounds 1 and 2, we found eight and three of the kinases to belong to the STE20 kinase family. Together, this implies that the inhibitors identified in this study are selective towards the STE20 kinase family.

[5] = system: HT-29 cells; experiment: Cell cycle distribution by flow cytometry; assay type: cell-based, Human
Procedure: The cell cycle distribution was measured by flow cytometry. HT-29 cells were treated with or without the indicated concentrations of compound 1 for 24 or 48 h or 72 h. The cells were harvested by trypsinizing and fixed in ice-cold 75% ethanol for 1 h at −20 °C. The samples were washed with PBS and resuspended in the proper amount of DNA extraction buffer, containing 0.2 M Na2HPO4 and 0.1 M citric acid pH 7.8, for 30 min. Then the cells were washed again with PBS and stained with propidium iodide solution containing 100 µg/ml RNaseA, 80 µg/ml propidium iodide and 0.1% Triton X-100, which were all in PBS. Finally, cell cycle distribution was determined and performed by utilising BD Accuri™ and C6 Software (BD Biosciences, Franklin Lakes, NJ, USA).

[6] = system: H1299 cells; experiment: MTT cell viability assay; assay type: cell-based; conditions: Homo sapiens, NCI-H1299, 72 h, read-out: IC50 (cell survival)
Procedure: as §2, §3

[7] = system: HCT116 cells; experiment: MTT cell viability assay; assay type: cell-based; conditions: Homo sapiens, HCT-116, 72 h, read-out: IC50 (cell survival)
Procedure: as §2, §3

[8] = system: HT29 cells; experiment: MTT cell viability assay; assay type: cell-based; conditions: Homo sapiens, HT-29, 72 h, read-out: IC50 (cell survival)
Procedure: as §2, §3

[9] = system: H1299 cells; experiment: SRB cell proliferation assay; assay type: cell-based; conditions: Homo sapiens, NCI-H1299, 48 h, read-out: GI50 (50% of growth inhibition)
Procedure: as §2, §4

[10] = system: HCT116 cells; experiment: SRB cell proliferation assay; assay type: cell-based; conditions: Homo sapiens, HCT-116, 48 h, read-out: GI50 (50% of growth inhibition)
Procedure: as §2, §4

[11] = system: HT29 cells; experiment: SRB cell proliferation assay; assay type: cell-based; conditions: Homo sapiens, HT-29, 48 h, read-out: GI50 (50% of growth inhibition)
Procedure: as §2, §4

SMILES	inhibition at 10 µM [1] [%]	inhibition at 10 µM [2] [%]	IC50 [1] [nM]	Inhibition percentage at 10 μM MAP4K5 [1]	IC50 [2] [µM]	Inhibition percentage at 10 μM TAOK1 [2]	Number of kinases inhibited in panel [4]	also measured
Nc1nnc(N)c2nc(-c3ccccc3)c(-c3ccccc3)nc12 [Compound 4]	54	19	–	–	–	–	–	–
Nc1ncnc2nc(-c3ccc(C(=O)c4ccc([N+](=O)[O-])cc4)cc3)[nH]c12 [Compound 3]	≥ 50	≥ 50	6280	51%	5.3	63%	23 kinases	Effect in cell-based experiments [3]: limited effects
CCN1CCN(CCNc2nccc(-c3c(-c4cccc(O)c4)nc4sccn34)n2)S1(=O)=O [Compound 1]	–	–	2250	≥ 50% and 84%	4.15	≥ 50% and 74%	nine	Number of G0/G1-phase cells ([5]; HT29, 24 h treatment): increased in a concentration-dependent manner; Cell cycle effect ([5]; HT-29, 24 h): arrested cancer cells at the G0/G1 phase; IC50 [6]: 23.6 µM; IC50 [7]: 13.3 µM; IC50 [8]: 13.3 µM; GI50 [9]: 19.2 µM; GI50 [10]: 3.9 µM; GI50 [11]: 6.8 µM; Cancer cell proliferation (SRB) at 10 µM and survival (MTT) at 30 µM ([3]; 10 µM for 48 h (SRB), 30 µM for 72 h (MTT), HCT116, HT29, H1299): significantly inhibited; Number of inhibited kinases belonging to the STE20 kinase family [4]: eight
Nc1nc(N)c2nc(-c3ccc(O)cc3)c(-c3ccc(O)cc3)nc2n1 [Compound 2]	–	–	2000	≥ 50% and 77%	1.83	≥ 50% and 84%	five	Effect in cell-based experiments [3]: limited effects; Number of inhibited kinases belonging to the STE20 kinase family [4]: three

Continued, in another order:

inhibition at 10 µM [1] [%]	inhibition at 10 µM [2] [%]	IC50 [1] [nM]	Inhibition percentage at 10 μM MAP4K5 [1]	IC50 [2] [µM]	Inhibition percentage at 10 μM TAOK1 [2]	Number of kinases inhibited in panel [4]	SMILES	also measured
41	12	–	–	–	–	–	CC(=O)Nc1ccc(Nc2nc(Cl)nc(Nc3ccc(NC(C)=O)cc3)n2)cc1 [Compound 6]	–
44	1	–	–	–	–	–	O=C(Nc1nc2ccccc2[nH]1)c1ccc(C(=O)Nc2nc3ccccc3[nH]2)cc1 [Compound 5]	–
47	4	–	–	–	–	–	CC1=C(C(=O)Nc2cccc3c2C(=O)NC3=O)CC(C(=O)Nc2cccc3c2C(=O)NC3=O)=C(C)N1 [Compound 7]	–
